These results are taken from patent US4264620A, “Antihypertensive 5-substituted 2-pyrrolidinecarboxylic acids” (Santen Pharmaceutical Co., Ltd., priority 1978, dated 1981).

For data set [1], the target named is T1, angiotensin-converting enzyme (Oryctolagus cuniculus, UniProt P12822).
T1 construct: extracted from rabbit lung; from tissue; host or cells: rabbit lung
T1 sequence (P12822 34-1310): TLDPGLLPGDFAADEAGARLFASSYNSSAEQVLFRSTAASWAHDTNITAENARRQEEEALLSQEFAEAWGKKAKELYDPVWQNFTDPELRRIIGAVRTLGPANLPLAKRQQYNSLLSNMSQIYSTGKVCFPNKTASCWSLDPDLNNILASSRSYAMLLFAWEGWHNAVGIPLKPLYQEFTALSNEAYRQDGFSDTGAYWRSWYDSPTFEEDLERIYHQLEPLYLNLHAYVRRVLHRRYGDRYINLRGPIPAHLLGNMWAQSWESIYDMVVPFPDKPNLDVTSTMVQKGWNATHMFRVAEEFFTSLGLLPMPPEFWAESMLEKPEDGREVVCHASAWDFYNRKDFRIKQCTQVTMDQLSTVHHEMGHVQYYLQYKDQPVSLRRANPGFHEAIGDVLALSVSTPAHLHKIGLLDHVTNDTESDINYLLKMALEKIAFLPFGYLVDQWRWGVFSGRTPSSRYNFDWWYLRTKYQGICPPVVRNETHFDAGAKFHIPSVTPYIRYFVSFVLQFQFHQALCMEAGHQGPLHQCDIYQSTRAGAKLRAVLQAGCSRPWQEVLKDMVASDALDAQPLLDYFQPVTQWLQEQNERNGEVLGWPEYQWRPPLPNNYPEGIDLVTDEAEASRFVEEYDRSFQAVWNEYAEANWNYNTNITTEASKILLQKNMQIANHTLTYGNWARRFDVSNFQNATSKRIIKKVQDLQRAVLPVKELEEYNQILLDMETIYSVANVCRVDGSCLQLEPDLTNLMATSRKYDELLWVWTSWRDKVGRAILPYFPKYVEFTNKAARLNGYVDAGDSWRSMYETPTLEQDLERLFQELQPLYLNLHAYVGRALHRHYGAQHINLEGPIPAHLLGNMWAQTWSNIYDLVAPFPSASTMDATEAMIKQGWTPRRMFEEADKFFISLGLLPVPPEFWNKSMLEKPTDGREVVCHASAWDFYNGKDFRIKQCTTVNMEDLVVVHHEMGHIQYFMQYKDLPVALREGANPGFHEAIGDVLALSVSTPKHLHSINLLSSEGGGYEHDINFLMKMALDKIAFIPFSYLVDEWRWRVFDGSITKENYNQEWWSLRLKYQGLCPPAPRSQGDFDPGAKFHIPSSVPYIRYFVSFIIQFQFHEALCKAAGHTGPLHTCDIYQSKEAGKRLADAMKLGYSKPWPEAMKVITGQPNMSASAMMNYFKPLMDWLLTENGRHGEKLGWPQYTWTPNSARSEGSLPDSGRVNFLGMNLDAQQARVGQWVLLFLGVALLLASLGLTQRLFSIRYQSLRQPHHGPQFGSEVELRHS
In words: Inhibitory activity of angiotensin-converting enzyme extracted from rabbit lung (spectrophotometry, HHL substrate). In kind it is biochemical. The settings on record: 5 mM HHL, pH 8.3, 37° C., 30 minutes, read-out: Angiotensin-converting enzyme IC50: concentration of compound producing 50% inhibition against angiotensin-converting enzyme. How it is done: The activity of angiotensin-converting enzyme was measured by spectrophotometry according to the method of Biochem. Pharmacol., 20. 1637 (1971). That is, the absorbance of hippuric acid was measured, which is liberated by incubating hippuryl-L-histidyl-L-leucine (HHL) as substrate in the presence of angiotensin-converting enzyme extracted from rabbit lung. The reaction mixture is as follows: 100 mM phosphate buffer (pH 8.3) 300 mM sodium chloride 5 mM HHL […] enzyme inhibitor 5 mU enzyme 0.25 ml of the above mixture was incubated at 37° C. for 30 minutes and the reaction was stopped by adding 0.25 ml of 1 N hydrochloric acid. […] The absorbance of this solution was measured at 228 nm.

Data set [2] concerns contractile response to bradykinin. As to the kind of experiment: Augmentation of contractile response of isolated guinea-pig ileum to bradykinin. The settings on record: bradykinin 0.005 μg/ml, compound added 5 minutes before, read-out: Bradykinin AC50: concentration of compound producing 50% augmentation of the contractive action of bradykinin on the guinea-pig ileum. How it is done:
(§1) Isolated guinea-pig ileum was suspended in the organ bath containing 20 ml of Tyrode's solution of 30° C. gassed with 95% O2 +5% CO2. The contraction induced by the addition of angiotensin I (0.1 μg/ml) at intervals of 10 minutes was recorded on a recticorder (Nihon Koden) for 90 seconds using FD pick up (ST-1T-H, Nihon Koden).
(§2) The test compounds were added to the bath 5 minutes before the addition of angiotensin I.
From the fact that kininase II, which destroys bradykinin having contractile action of isolated guinea-pig ileum, is thought to be identical with angiotensin-converting enzyme, augmentation of the contractile response to bradykinin by test compounds was examined by using bradykinin (0.005 μg/ml) in place of angiotensin I according to the above mentioned method.

For data set [3], the system named is contractile response of isolated guinea-pig ileum to angiotensin I. In words: Inhibition of contractile response of isolated guinea-pig ileum to angiotensin I (bioassay of angiotensin-converting enzyme inhibitory activity). The settings on record: angiotensin I 0.1 μg/ml, Tyrode's solution 30° C., compound added 5 minutes before, read-out: Angiotensin I IC50: concentration of compound producing 50% inhibition of the contractive action of angiotensin I on the guinea-pig ileum.
From the text: As the method of measurement of angiotensin-converting enzyme activity, bioassay for the contractile response of isolated smooth muscle or the pressor response of normal animals and biochemical assay for the enzyme isolated from lung or other organs of animals are known. The former is found more advantageous than the latter for the examination of the convertion of angiotensin I to angiotensin II in vivo.
In the present study, therefore, we adopted the bioassay for contractile response of isolated guinea-pig ileum to angiotensin I.
as §1, §2
The inhibitory activity of angiotensin-converting enzyme was calculated by the following formula. [formula]

Another data set is described as follows: Acute toxicity test. Type of data set: in vivo. The conditions noted are these: mouse, in vivo, ip. On the procedure: (§3) The male ddy-std strain mice (4 weeks of age, weighing 19-21 g) were placed in a breeding room of constant temperature and humidity (23±1° C., 55±5%) and fed freely pellet diet (CE-2, Clea Japan Inc.) and water ad. libitum for a week. The mice showing the normal growth were selected for the experiment.
(§4) Test compounds are suspended in 0.5% tragacanth solution, and administered intraperitoneally in a dose of 0.5 ml of 20 g body weight.

Another data set concerns male ddy-std strain mice. As to the kind of experiment: Acute toxicity test. The settings on record: male ddy-std mice, intraperitoneally. Type of data set: in vivo. On the procedure: as §3, §4

A word on the LD50: it is the dose expected to kill half of the subjects tested. Low readings indicate greater toxicity, high ones lower toxicity.

Turning to `C[C@H](CS)C(=O)N1C(C(=O)O)CCC1c1ccccc1O` (single isomer, unassigned) [Compound C], the IC50 in data set [1] came out at 1100 nM; in data set [3], 160 nM. The AC50 in data set [2] was determined as 2 nM.

In the case of `O=C(O)C1CCC(c2ccccc2O)N1C(=O)CCS` (stereo not drawn) [Compound A, α-5-(2-hydroxyphenyl)-1-(3-mercaptopropanoyl)-2-pyrrolidinecarboxylic acid], the LD50 in “Acute toxicity test” fell in the range of 1000 to 1250 mg/kg. In the data set with male ddy-std strain mice, the “Acute toxicity (result in words)” value is “low”. For the same compound, the IC50 in data set [1] turned out to be 560 nM; in data set [3], 170 nM. Further, in data set [2], the AC50 came to 1.8 nM.

Consider `O=C(O)C1CCC(c2ccc(O)cc2)N1C(=O)CCS` (stereo not drawn) [Compound B, α-5-(4-hydroxyphenyl)-1-(3-mercaptopropanoyl)-2-pyrrolidinecarboxylic acid], for which the IC50 amounted to 440 nM in data set [1] and 480 nM in data set [3]. Further, the AC50 in data set [2] came to 9.8 nM.

Consider `C[C@H](CS)C(=O)N1CSC[C@H]1C(=O)O` [Compound Z, (4R)-3-[(2S)-3-mercapto-2-methylpropanoyl]-4-thiazolidinecarboxylic acid, reference compound], for which the AC50 in data set [2] stood at 2.6 nM. For the same compound, the IC50 in data set [3] was 170 nM.

Regarding `O=C(O)C1CCC(c2ccccc2O)N1C(=O)CCS` (stereo not drawn) [Compound E, α1-5-(2-hydroxyphenyl)-1-(3-mercaptopropanoyl)-2-pyrrolidinecarboxylic acid], the IC50 was 65 nM in data set [1] and 76 nM in data set [3]. Moreover, in data set [2], the AC50 was 0.95 nM.

As for `C[C@H](CS)C(=O)N1C(C(=O)O)CCC1c1ccccc1O` (single isomer, unassigned) [Compound D], the results for the IC50 in data set [1] and in data set [3] were 1200 nM and 150 nM, respectively. For the same compound, the AC50 in data set [2] is 2.6 nM.
